Laboratory results as given in ChEMBL document CHEMBL4334438, “Discovery of novel glycogen synthase kinase-3α inhibitors: Structure-based virtual screening, preliminary SAR and biological evaluation for treatment of acute myeloid leukemia” (Eur J Med Chem, 2019).

Tests used:
[1] = molecular target: Mitogen-activated protein kinase kinase kinase 3 (Homo sapiens) (UniProt Q99759); assay: Inhibition of recombinant full length human MEKK3 assessed as residual activity at 1 uM using myelin basic protein as substrate incubated for 120 mins in presence of [gamma-33ATP by scintillation counting based radiometry assay relative to control
[2] = molecular target: Dual specificity protein kinase CLK2 (Homo sapiens) (UniProt P49760); assay: Inhibition of recombinant human CLK2 (138 to end residues) assessed as residual activity at 1 uM using YRRAAVPPSPSLSRHSSPHQS(p)EDEEE as substrate incubated 40 mins in presence of [gamma-33ATP] by scintillation counting based radiometry assay relative to control
[3] = system: Tyrosine-protein kinase receptor UFO (Homo sapiens), P30530 [Q764R]; assay: Inhibition of recombinant human Axl Q764R mutant (473 to end residues) assessed as residual activity at 1 uM using KKSRGDYMTMQIG as substrate incubated for 40 mins in presence of [gamma-33ATP] by scintillation counting based radiometry assay relative to control
[4] = molecular target: Tyrosine-protein kinase JAK1 (Homo sapiens) (UniProt P23458); assay: Inhibition of human JAK1 (866 to end residues) assessed as residual activity at 1 uM using GEEPLYWSFPAKKK as substrate after 40 mins by [gamma-33ATP] radiometric assay relative to control
Tyrosine-protein kinase JAK1 (Homo sapiens), sequence (P23458 whole entry, the tested form may be a part): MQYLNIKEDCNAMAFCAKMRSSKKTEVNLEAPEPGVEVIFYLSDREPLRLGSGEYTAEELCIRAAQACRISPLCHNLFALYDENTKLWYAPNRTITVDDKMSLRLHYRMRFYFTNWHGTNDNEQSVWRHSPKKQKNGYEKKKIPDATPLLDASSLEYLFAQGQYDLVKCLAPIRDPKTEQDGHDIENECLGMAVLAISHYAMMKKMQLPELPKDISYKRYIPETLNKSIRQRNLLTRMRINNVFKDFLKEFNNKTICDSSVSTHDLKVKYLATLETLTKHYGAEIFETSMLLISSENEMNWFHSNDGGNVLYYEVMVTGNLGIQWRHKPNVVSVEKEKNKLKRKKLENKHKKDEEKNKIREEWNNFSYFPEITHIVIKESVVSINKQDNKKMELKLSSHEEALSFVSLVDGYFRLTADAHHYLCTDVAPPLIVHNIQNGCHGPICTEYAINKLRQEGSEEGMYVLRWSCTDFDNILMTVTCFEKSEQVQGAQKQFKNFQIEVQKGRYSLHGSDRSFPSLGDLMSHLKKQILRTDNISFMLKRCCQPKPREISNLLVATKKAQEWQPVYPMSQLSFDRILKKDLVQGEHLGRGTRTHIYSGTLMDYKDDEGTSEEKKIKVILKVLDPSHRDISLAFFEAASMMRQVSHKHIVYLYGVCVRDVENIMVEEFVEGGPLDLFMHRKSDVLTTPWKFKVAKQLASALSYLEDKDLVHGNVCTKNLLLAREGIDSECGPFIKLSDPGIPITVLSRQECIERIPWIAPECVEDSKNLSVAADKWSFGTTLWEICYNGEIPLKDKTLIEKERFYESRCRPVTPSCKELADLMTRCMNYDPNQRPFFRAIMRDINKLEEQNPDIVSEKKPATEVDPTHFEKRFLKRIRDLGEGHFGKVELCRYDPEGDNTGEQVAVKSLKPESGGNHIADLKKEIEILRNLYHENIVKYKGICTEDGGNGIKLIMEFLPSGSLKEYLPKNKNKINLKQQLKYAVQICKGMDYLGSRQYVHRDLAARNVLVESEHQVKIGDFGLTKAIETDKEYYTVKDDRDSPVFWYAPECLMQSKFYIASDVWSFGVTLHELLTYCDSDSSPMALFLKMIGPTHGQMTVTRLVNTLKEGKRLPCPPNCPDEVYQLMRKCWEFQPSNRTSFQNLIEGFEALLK

[5] = molecular target: Ephrin type-A receptor 4 (Homo sapiens) (UniProt P54764); assay: Inhibition of recombinant human EphA4 (601 to 892 residues) assessed as residual activity at 1 uM using poly(Glu, Tyr) 4:1 as substrate at 40 mins in presence of [gamma-33ATP] by scintillation counting based radiometry assay relative to control
[6] = system: Serine/threonine-protein kinase A-Raf (Homo sapiens), P10398 [Y301D,Y302D]; assay: Inhibition of recombinant human A-Raf Y301D/Y302D mutant (273 to end residues) assessed as residual activity at 1 uM using myelin basic protein as substrate incubated for 40 mins in presence of [gamma-33ATP] by scintillation counting based radiometry assay relative to control
Serine/threonine-protein kinase A-Raf (Homo sapiens), P10398 [Y301D,Y302D], sequence (P10398 whole entry Y301D/Y302D, the tested form may be a part): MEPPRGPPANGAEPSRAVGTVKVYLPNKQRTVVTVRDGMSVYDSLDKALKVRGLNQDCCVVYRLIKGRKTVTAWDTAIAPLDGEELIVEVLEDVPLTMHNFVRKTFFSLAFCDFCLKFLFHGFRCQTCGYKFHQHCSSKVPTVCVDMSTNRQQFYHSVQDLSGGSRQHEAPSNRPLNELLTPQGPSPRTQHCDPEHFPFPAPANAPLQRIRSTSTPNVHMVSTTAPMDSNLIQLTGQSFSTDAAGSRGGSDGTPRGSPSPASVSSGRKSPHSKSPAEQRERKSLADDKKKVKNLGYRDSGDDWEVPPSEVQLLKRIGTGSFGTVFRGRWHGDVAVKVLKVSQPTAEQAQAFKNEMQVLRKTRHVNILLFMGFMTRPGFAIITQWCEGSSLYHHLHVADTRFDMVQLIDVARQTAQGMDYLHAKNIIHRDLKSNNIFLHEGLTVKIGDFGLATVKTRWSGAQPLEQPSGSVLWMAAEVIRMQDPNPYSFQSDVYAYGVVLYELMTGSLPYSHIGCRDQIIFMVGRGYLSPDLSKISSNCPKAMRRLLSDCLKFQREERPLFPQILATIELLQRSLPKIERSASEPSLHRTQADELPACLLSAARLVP

[7] = molecular target: Phosphatidylinositol 4-phosphate 3-kinase C2 domain-containing subunit alpha (Homo sapiens) (UniProt O00443); assay: Inhibition of recombinant human PI3KC2alpha (299 to end residues) at 1 uM assessed as residual activity at 1 uM using phosphatidylinositol as substrate measured after 40 mins by HTRF assay
[8] = molecular target: Testis-specific serine/threonine-protein kinase 2 (Homo sapiens) (UniProt Q96PF2); assay: Inhibition of recombinant full-length human TSSK2 at 1 uM assessed as residual activity at 1 uM using KKKVSRSGLYRSPSMPENLNRPR as substrate measured after 40 mins in presence of [gamma33P]ATP by scintillation counting method relative to control
Testis-specific serine/threonine-protein kinase 2 (Homo sapiens), sequence (Q96PF2 whole entry): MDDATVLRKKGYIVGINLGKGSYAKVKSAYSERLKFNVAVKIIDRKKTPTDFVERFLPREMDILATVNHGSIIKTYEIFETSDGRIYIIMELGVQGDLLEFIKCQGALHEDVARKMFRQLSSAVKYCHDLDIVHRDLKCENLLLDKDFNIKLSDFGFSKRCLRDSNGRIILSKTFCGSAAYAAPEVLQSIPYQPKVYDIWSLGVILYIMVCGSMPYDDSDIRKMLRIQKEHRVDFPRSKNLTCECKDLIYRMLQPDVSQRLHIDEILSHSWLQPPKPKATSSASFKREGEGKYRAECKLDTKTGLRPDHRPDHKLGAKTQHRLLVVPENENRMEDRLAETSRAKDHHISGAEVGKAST

[9] = molecular target: 5'-AMP-activated protein kinase catalytic subunit alpha-2 (Homo sapiens) (UniProt P54646); assay: Inhibition of recombinant full length human AMPKalpha2 assessed as residual activity at 1 uM using AMARAASAAALAR as substrate incubated for 40 mins in presence of [gamma-33ATP] by scintillation counting based radiometry assay relative to control
[10] = molecular target: Mitogen-activated protein kinase 8 (Homo sapiens) (UniProt P45983); assay: Inhibition of human JNK1alpha1 assessed as residual activity at 1 uM using ATF2 as substrate after 40 mins by [gamma-33ATP] radiometric assay relative to control
Mitogen-activated protein kinase 8 (Homo sapiens), sequence (P45983 whole entry): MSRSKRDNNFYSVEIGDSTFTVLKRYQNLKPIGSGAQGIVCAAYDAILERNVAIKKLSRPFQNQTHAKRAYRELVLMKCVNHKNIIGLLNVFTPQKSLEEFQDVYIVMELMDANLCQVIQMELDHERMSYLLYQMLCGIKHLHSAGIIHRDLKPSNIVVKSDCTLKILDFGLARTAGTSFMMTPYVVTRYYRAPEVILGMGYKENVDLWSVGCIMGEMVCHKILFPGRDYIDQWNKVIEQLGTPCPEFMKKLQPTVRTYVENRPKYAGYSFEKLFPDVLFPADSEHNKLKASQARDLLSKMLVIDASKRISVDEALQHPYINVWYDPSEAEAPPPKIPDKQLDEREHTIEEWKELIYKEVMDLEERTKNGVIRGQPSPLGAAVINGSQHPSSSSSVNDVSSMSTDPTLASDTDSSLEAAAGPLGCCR

[11] = molecular target: PI3K p110 beta/p85 alpha (Homo sapiens) (UniProt P27986+P42338); assay: Inhibition of recombinant full-length human PI3K p110beta/p85alpha at 1 uM assessed as residual activity at 1 uM using phosphatidylinositol-4, 5-bisphosphate as substrate measured after 40 mins by fluorescence assay; format: protein-complex assay
[12] = molecular target: Platelet-derived growth factor receptor beta (Homo sapiens) (UniProt P09619); assay: Inhibition of human PDGFRbeta (557 to end residues) assessed as residual activity at 1 uM using poly(Glu, Tyr) 4:1 as substrate measured after 40 mins in presence of [gamma33P]ATP by scintillation counting method relative to control
[13] = molecular target: Serine/threonine-protein kinase 10 (Homo sapiens) (UniProt O94804); assay: Inhibition of recombinant human LOK (1 to 348 residues) assessed as residual activity at 1 uM using RLGRDKYKTLRQIRQ as substrate after 40 mins in presence of [gamma-33ATP] by scintillation counting based radiometry assay relative to control
Serine/threonine-protein kinase 10 (Homo sapiens), sequence (O94804 whole entry, looked up, the tested form may be a part): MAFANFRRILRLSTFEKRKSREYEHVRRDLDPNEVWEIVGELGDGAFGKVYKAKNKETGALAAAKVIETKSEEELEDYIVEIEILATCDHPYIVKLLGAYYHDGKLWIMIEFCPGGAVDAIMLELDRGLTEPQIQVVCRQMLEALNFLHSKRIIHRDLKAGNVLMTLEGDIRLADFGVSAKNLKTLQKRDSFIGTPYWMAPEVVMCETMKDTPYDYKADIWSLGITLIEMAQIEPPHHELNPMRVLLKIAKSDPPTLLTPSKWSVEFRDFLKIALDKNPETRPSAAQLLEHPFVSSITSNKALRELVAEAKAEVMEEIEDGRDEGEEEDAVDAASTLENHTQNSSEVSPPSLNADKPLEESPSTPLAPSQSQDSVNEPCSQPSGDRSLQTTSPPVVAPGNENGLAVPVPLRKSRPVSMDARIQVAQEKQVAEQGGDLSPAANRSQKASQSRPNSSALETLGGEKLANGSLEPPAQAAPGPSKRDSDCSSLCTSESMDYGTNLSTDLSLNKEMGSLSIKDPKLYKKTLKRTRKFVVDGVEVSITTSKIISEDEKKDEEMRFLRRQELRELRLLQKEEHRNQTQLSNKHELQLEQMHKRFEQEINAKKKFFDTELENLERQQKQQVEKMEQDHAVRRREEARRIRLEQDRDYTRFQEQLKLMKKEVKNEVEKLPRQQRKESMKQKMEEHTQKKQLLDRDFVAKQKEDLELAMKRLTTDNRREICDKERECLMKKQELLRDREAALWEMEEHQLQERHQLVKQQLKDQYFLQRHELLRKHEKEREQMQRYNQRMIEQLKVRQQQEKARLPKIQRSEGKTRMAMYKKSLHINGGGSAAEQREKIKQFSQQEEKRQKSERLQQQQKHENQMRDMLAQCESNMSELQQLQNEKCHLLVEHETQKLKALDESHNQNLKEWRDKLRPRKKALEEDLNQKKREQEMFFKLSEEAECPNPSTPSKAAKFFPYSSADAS

[14] = molecular target: Focal adhesion kinase 1 (Homo sapiens) (UniProt Q05397); assay: Inhibition of recombinant human FAK (411 to 686 residues) assessed as residual activity at 1 uM using EEEEYEEEEEEYYIIEEEEEEYEEEEEEYYEEEEEEKKKK as substrate at 40 mins in presence of [gamma-33ATP] by scintillation counting based radiometry assay relative to control
[15] = molecular target: Vascular endothelial growth factor receptor 2 (Homo sapiens) (UniProt P35968); assay: Inhibition of human KDR (790 to end residues) assessed as residual activity at 1 uM using myelin basic protein as substrate after 40 mins by [gamma-33ATP] radiometric assay relative to control
[16] = molecular target: Ephrin type-A receptor 5 (Homo sapiens) (UniProt P54756); assay: Inhibition of recombinant human EphA5 (655to 956 residues) assessed as residual activity at 1 uM using poly(Glu, Tyr) 4:1 as substrate at 40 mins in presence of [gamma-33ATP] by scintillation counting based radiometry assay relative to control
Ephrin type-A receptor 5 (Homo sapiens), sequence (P54756 whole entry, the tested form may be a part): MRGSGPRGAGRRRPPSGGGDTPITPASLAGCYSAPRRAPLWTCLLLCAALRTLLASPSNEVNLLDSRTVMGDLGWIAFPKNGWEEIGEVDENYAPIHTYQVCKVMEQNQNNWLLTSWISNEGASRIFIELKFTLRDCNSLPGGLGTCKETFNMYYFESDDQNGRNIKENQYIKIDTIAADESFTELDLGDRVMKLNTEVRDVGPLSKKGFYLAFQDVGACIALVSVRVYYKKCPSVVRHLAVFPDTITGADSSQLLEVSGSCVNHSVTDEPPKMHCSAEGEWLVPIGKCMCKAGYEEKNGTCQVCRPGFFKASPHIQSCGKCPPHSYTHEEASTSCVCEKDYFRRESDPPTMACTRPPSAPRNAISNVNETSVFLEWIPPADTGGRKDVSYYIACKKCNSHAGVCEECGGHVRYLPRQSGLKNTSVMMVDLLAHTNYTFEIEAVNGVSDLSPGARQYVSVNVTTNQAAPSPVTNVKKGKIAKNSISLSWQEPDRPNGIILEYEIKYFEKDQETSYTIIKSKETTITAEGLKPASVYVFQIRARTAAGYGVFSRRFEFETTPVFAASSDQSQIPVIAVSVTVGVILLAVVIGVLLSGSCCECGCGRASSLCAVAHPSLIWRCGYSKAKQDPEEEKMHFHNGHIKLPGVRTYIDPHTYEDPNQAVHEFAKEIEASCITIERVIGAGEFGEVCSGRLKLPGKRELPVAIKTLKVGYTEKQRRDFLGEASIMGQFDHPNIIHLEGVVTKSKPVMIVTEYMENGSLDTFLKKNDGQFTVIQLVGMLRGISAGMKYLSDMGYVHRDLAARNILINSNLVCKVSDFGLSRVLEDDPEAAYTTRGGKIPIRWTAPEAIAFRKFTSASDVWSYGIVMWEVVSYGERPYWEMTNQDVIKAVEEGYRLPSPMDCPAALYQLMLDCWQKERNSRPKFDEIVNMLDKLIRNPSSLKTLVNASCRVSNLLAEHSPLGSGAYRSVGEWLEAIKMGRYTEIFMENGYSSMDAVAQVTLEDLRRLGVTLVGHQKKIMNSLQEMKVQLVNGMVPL

[17] = molecular target: Dual specificity tyrosine-phosphorylation-regulated kinase 1B (Homo sapiens) (UniProt Q9Y463); assay: Inhibition of recombinant human DYRK1B assessed as residual activity at 1 uM using RRRFRPASPLRGPPK as substrate at 40 mins in presence of [gamma-33ATP] by scintillation counting based radiometry assay relative to control
[18] = molecular target: Fibroblast growth factor receptor 3 (Homo sapiens) (UniProt P22607); assay: Inhibition of recombinant human FGFR3 (447 to 761 residues) assessed as residual activity at 1 uM using poly(Glu, Tyr) 4:1 as substrate at 40 mins in presence of [gamma-33ATP] by scintillation counting based radiometry assay relative to control
[19] = molecular target: Serine/threonine-protein kinase pim-3 (Homo sapiens) (UniProt Q86V86); assay: Inhibition of recombinant human Pim3 (2 to end residues) assessed as residual activity at 1 uM using RSRHSSYPAGT as substrate measured after 40 mins in presence of [gamma33P]ATP by scintillation counting method relative to control
[20] = molecular target: Serine/threonine-protein kinase TBK1 (Homo sapiens) (UniProt Q9UHD2); assay: Inhibition of recombinant full-length human TBK1 at 1 uM assessed as residual activity at 1 uM using KRRRALS(p)VASLPGL as substrate measured after 40 mins in presence of [gamma33P]ATP by scintillation counting method relative to control
[21] = molecular target: Wee1-like protein kinase 2 (Homo sapiens) (UniProt P0C1S8); assay: Inhibition of recombinant full-length human WEE1b at 1 uM assessed as residual activity at 1 uM using LSNLYHQGKFLQTFCGSPLYRRR as substrate measured after 120 mins in presence of [gamma33P]ATP by scintillation counting method relative to control

Row | Compound | Activity [1] | Activity [2] | Activity [3] | Activity [4] | Activity [5] | Activity [6] | Activity [7] | Activity [8] | Activity [9] | Activity [10] | Activity [11] | Activity [12] | Activity [13] | Activity [14] | Activity [15] | Activity [16] | Activity [17] | Activity [18] | Activity [19] | Activity [20] | also measured
1 | N=C1NC(=O)/C(=C\c2ccc(-c3cccc([N+](=O)[O-])c3)o2)S1 | 98% | 39% | 98% | 96% | 103% | 105% | 100% | 108% | 44% | 101% | 99% | 103% | 95% | 105% | 94% | 89% | 80% | 107% | 21% | 105% | Activity [21]: 106%
2 | C=CCOC(=O)c1cc(-c2ccc(/C=C3/NC(=S)NC3=O)o2)ccc1Cl | 96% | 38% | 101% | 106% | 98% | 111% | 87% | 102% | 33% | 99% | 97% | 108% | 95% | 105% | 98% | 100% | 88% | 106% | 33% | 98% | Activity [21]: 93%
